Here are results for one compound from patent US12370230B2, “Hemp and PEA formulation and its use” (priority 2019, dated 2025).

Where only a bound is given, the exact number is not on record here.

Test [1] has as its system formalin-evoked acute and persistent nociceptive behaviors. Nature of the test: Formalin test (acute nocifensive response; PFD7 hypersensitivity and paw edema). It is filed as in vivo, mice. As to the method:
(§1) We used male CD-1 mice (9-10 weeks old; Charles River, Wilmington, MA, US) weighing 25-30 g upon arrival. They were randomly assigned to treatment groups and housed in ventilated plastic cages (4-5 per cage) in the animal facility of the University of California, Irvine. Animals were maintained in a pathogen-free environment (12-h light/dark cycle) under controlled temperature (20±2° C.) and humidity (55-60%) with food and water available ad libitum. Mice were allowed to acclimate for at least 7 days and experiments were conducted during the light phase of the light/dark cycle. All efforts were made to minimize the number of animals used and their discomfort. All procedures were approved by the Institutional Animal Care and Use Committee at the University of California, Irvine, and were carried out in strict accordance with the National Institutes of Health guidelines for the care and use of animals.
(§2) HOE (code: VOHO-MGC) and PEA (batch No 20190604_03) were supplied by Metagenics Inc. The chemical composition of HOE is presented in Table A below. The extract was aliquoted upon arrival at our facility and kept at −80° C. until use. Before tests, aliquots were thawed at room temperature and the extract was diluted to the desired dose in a vehicle of 85% distilled water/15% Tween 80. Defrosted samples were discarded after use. HOE was subjected to an internal quality control to monitor its content of CBD and CBDA over time. HOE, PEA and their combinations were administered in volumes of 10 mL/kg by oral gavage.
The formalin test was described in detail previously (e.g., see Dubuisson & Dennis, 1977). We injected formalin (1% v/v, 10 μL) or vehicle (saline, 10 μL) into the plantar surface of the right hind paw of male mice. Test compounds or vehicle (85% distilled water/15% Tween 80) were administered orally 1 h before formalin injection. Following injection, mice were immediately transferred to a transparent observation chamber where nocifensive behavior (time spent licking or biting the injected paw, number of shakings) was continuously recorded by a video camera for 60 min and then measured by trained observers blinded to experimental conditions. Behavioral tests and paw edema measurements were performed on post-formalin day (PFD) 7 in both the injected (ipsilateral) and contralateral paws.
(§3) Mechanical sensitivity was assessed using a dynamic plantar aesthesiometer (Cat. No 37450, Ugo Basile, Italy). Mice were placed individually in transparent cages positioned on a wire mesh surface. After a 45-min habituation period, a mechanical stimulus was delivered to the plantar surface of the hind paws through the metal grid by an automated steel filament exerting an increasing force ranging from 0 to 5 grams over 10 s. The force at which the mouse withdrawn its paw (withdrawal threshold, in grams) was measured automatically. Thermal sensitivity was measured using a Hargreaves plantar test apparatus (San Diego Instruments, Inc, CA, USA). Mice were individually placed in small enclosures with a glass floor. After a 45-min habituation period, the plantar surface of the hind paws was exposed to a beam of radiant heat (infrared heat intensity: 3.0) through the glass floor. The cut-off time was set at 15 s. The time taken to withdraw the paw from heat stimulus (withdrawal latency, in seconds) was measured automatically. Each paw was tested 3 times with a 2-min interval between stimuli and the mean paw withdrawal threshold and latency were calculated. Paw thickness was measured in both ipsilateral and contralateral paws using a digital caliper (Cat. No 06-664-16, Fisher scientific, USA). Paw edema was quantified as the difference (paw thickness, in mm) between the ipsilateral paw thickness and the contralateral counterpart.
Results are presented as mean S.E.M. of n experiments. ED50 values were determined by linear regression analysis of dose-response curves. […]

The test system of test [2] is CCI-evoked mechanical allodynia and heat hyperalgesia. Put plainly: Chronic constriction injury (CCI) of the sciatic nerve: mechanical allodynia and heat hyperalgesia. It counts as in vivo, mice. As to the method: as §1, §2
(§4) We elicited peripheral neuropathy in the left sciatic nerve of mice as described elsewhere (e.g., see Bennett & Xie, 1988). In brief, mice were anesthetized in 2-3% isoflurane in O2. Under aseptic conditions, the sciatic nerve was exposed at mid-thigh level through a small incision and loosely tied at 3 distinct sites (spaced at 1-mm interval) with 4-0 chromic catgut (Ethicon, USA). The wound was closed with a single muscle suture (Mersilk 5.0, Ethicon, USA) and glue to fasten the skin. Operated mice were returned to their home cages for recovery. Test compounds or vehicle were given by the oral route on day 7 after surgery (acute treatment) and then repeatedly once daily for 7 consecutive days (subchronic treatment). Behavioral tests were performed within 1 h of acute treatment or last subchronic treatment in both operated (ipsilateral) and contralateral paws. Mice were sacrificed by decapitation, the spinal cords were extruded by hydraulic pressure and processed for specific mRNA quantification in lumbar segments by real-time quantitative PCR.
as §3, with “Paw edema was quantified as the difference (paw thickness, in mm) between the ipsilateral paw thickness and the contralateral counterpart.” left out

The next test deals with IL-10 mRNA. Put plainly: Real-time quantitative PCR in lumbar spinal cords of CCI mice, IL-10. To be noted: PEA 20 mg/kg alone, oral, lumbar spinal cord, vs vehicle. It counts as in vivo.
Excerpt: as §4, with “Test compounds or vehicle were given by the oral route on day 7 after surgery (acute treatment) and then repeatedly once daily for 7 consecutive days (subchronic treatment). Behavioral tests were performed within 1 h of acute treatment or last subchronic treatment in both operated (ipsilateral) and contralateral paws.” left out
We extracted total RNA from lumbar spinal cords (L3-L6) using TRIzol™ reagent (Thermo Fisher Scientific, Walthman, USA) and purified with the PureLink™ RNA Mini Kit (Invitrogen, Carlsbad, USA) as directed by the supplier. […] RNA concentration and purity were determined using the NanoDrop 2000/2000-c spectrophotometer (Thermo Fisher Scientific, Walthman, USA). cDNA was synthesized using 2 μg of total RNA as input for the High-Capacity cDNA RT Kit with RNase Inhibitor (Applied BioSystems, Foster City, USA) with a final reaction volume of 20 μL. […]

Where [3] appears, read: PEA 300 mg/kg oral single dose, PFD7, vs vehicle.
The mark [4] stands for this setting: PEA at dosages lower than 300 mg/kg oral, PFD7, P>0.05 vs vehicle.
[5] abbreviates: PEA 100 or 300 mg/kg oral once daily for 7 consecutive days, day 14 after CCI.
[6] abbreviates: single oral PEA administration, dose-response, day 7 after CCI, vs vehicle.

For the compound `CCCCCCCCCCCCCCCC(=O)NCCO` [PEA, palmitoylethanolamide], in test [1] (setting [3]), the “alleviation of heat hyperalgesia, contralateral paw” value was determined as 110%; the “alleviation of heat hyperalgesia, ipsilateral paw” value was determined as 93%; the “attenuation of mechanical allodynia, contralateral paw” value is reported as 112%; the “attenuation of mechanical allodynia, ipsilateral paw” value turned out to be 91%. Besides, in test [1] (PEA 10, 30, 100 and 300 mg/kg oral), the formalin-evoked nocifensive response entry was “dose-dependent suppression”. In addition, the “formalin-evoked inflammatory response (paw thickness)” value in test [1] (PEA 10, 30, 100 and 300 mg/kg oral, PFD7) was “dose-dependent suppression”. In test [1] (setting [4]), the “effect on heat hyperalgesia” value is on record as “no effect” and the “effect on mechanical allodynia” value is listed as “no effect”. In test [2] (setting [5]), the “effect on heat hyperalgesia, subchronic” value was “reversed” and the “effect on mechanical allodynia, subchronic” value was “reversed”. Besides, the “ED50, suppression of mechanical allodynia” value in test [2] (single oral PEA administration, day 7 after CCI, 95% CI 18.7 to 26.0) was 22.2 mg/kg. In addition, the “ED50, suppression of heat hyperalgesia” value in test [2] (single oral PEA administration, day 7 after CCI, 95% CI 21.8 to 29.1) came to 25.1 mg/kg. In test [2] (setting [6]), the “suppression of heat hyperalgesia (maximal)” value is given as at most 109% and the “suppression of mechanical allodynia (maximal)” value is on record as “up to 85%”. Also, in the test with IL-10 mRNA, the “IL-10 mRNA levels” value is listed as “halved”.
